What was measured:
[1] = tested on: patients with short bowel syndrome (SBS); experiment: 72-hour nutrient balance studies in open-label pilot study of teduglutide; type: in vivo, human
Experimental: This was an open-label, pilot study to determine the safety and effect of teduglutide in patients with short bowel syndrome (SBS). The patient's history was reviewed and a physical examination performed to determine eligibility before inclusion in the study. Estimated residual small intestine and colon lengths were determined by reviewing operative reports and available radiographic studies. Eligible patients were admitted as inpatients to hospital wards or General Clinic Research Centers (GCRC) on three separate occasions, 18 days apart, for the last four days and three nights of the baseline period and at the end of the treatment and follow-up periods. Treatment consisted of recombinant teduglutide (supplied by NPS Allelix, Mississauga, ON, Canada) formulated as a lyophilized powder with L-histidine, mannitol, and monobasic and dibasic sodium phosphate (Lot 8502901). Water was added to reconstitute the drug for administration by subcutaneous (s.c.) injections in the abdomen or thigh. Ten SBS patients with jejunostomy received 0.03 mg/kg/d, 0.10 mg/kg/d or 0.15 mg/kg/d once daily for 21 days. Five SBS patients with ≥50% colon-in-continuity received teduglutide 0.10 mg/kg/d once daily for 21 days.
The 72-hour nutrient balance studies were completed with each patient eating their usual diet, calculated from a seven-day food diary completed by the patient during the screening period. It was intended that patients eat the same quantity and quality of food and beverages during each admission. During the 72-hour balance periods, all oral intake (duplicate meals and beverages and declined food), fecal/stomal output, and urine were collected and weighed. All stool samples were refrigerated during the collection period. Stools and diets were separately homogenized and analyzed for energy content (by bomb calorimetry), nitrogen (by the macro-Kjeldahl's method), fat (by the gravimetric technique), and sodium and potassium (by atomic absorption).
Using the SAS (Version 8.2; SAS Institute, Cary, N.C.) statistical program, a Student's paired t test was employed that compared treatment to baseline values, and follow-up to baseline values. No comparisons were made between patients on different doses or with different anatomy due to the limited number of patients in the study. Data are expressed as mean±SD. A value of p<0.05 was considered significant.

[2] = tested on: patients with short bowel syndrome (SBS); experiment: Safety monitoring (adverse events, laboratory, vital signs, ECGs, antibodies)
Source text: During each inpatient period, patients underwent 72-hour nutrient balance and D-Xylose absorption studies, and a proximal or distal endoscopy to ascertain the condition of the intestinal mucosa and obtain biopsy samples. In jejunostomy patients, biopsies were obtained through the jejunostomy stoma or by upper gastrointestinal endoscopy. In patients with colon-in-continuity, colo-rectal biopsies were obtained. Teduglutide treatment began on Day 1 (immediately after the baseline period) and continued once-daily for 21 days. […] Patients were monitored for safety (adverse events, physical exams, vital signs, ECGs, laboratory results, and injection site examinations) during the inpatient periods and during outpatient visits on days 7 and 14.

[3] = Half-life / AUC (pharmacokinetics); type: in vivo
Experimental: This greater effect could be related to differences in dose and half-life of GLP-2 and teduglutide, respectively. In the pilot study with native GLP-2, 400 μg was given twice daily (corresponding to 0.013±0.002 mg/kg/day, a range of 0.011-0.017 mg/kg/day). The teduglutide doses in the current study were 3-10 times higher, ranging from 0.03 to 0.15 mg/kg/day. […] If area under the curve (AUC) is critical for the wet weight absorption effect, the AUC during teduglutide treatment may well be 200 times greater than the AUC when using native GLP-2. In this study, effects of teduglutide on energy and macronutrient absorption were minor compared to effects on wet weight absorption. […] Nonetheless, the effect of teduglutide on absolute energy absorption is 1.5 to 4-fold higher than with native GLP-2 (441±634 kJ/day ([105±151 kcal/day] p=0.09) at the given doses and treatment periods. Thus, in contrast to H2-receptor antagonists, proton-pump inhibitors and octreotide that only affect wet weight absorption, native GLP-2 and teduglutide seem to affect both intestinal wet weight and energy absorption, with an additional positive effect on wet weight absorption in patients already treated with these non-GLP-2 agonists.

[4] = Group 3 SBS ≥50% colon-in-continuity, of N=5
[5] = Group 4 SBS high dietary compliance, N=10, 21 days, Days 18-21 vs baseline
[6] = Group 4 SBS high dietary compliance, N=10, follow-up Days 39-42 vs baseline
[7] = Group 4 SBS high dietary compliance, of N=10

With `CC[C@H](C)[C@H](NC(=O)[C@H](Cc1ccccc1)NC(=O)[C@H](CC(=O)O)NC(=O)[C@H](CCCNC(=N)N)NC(=O)[C@H](C)NC(=O)[C@H](C)NC(=O)[C@H](CC(C)C)NC(=O)[C@H](CC(N)=O)NC(=O)[C@H](CC(=O)O)NC(=O)[C@H](CC(C)C)NC(=O)[C@@H](NC(=O)[C@@H](NC(=O)[C@H](CC(N)=O)NC(=O)[C@H](CCSC)NC(=O)[C@H](CCC(=O)O)NC(=O)[C@H](CC(=O)O)NC(=O)[C@H](CO)NC(=O)[C@H](Cc1ccccc1)NC(=O)[C@H](CO)NC(=O)CNC(=O)[C@H](CC(=O)O)NC(=O)CNC(=O)[C@@H](N)Cc1c[nH]cn1)[C@@H](C)O)[C@@H](C)CC)C(=O)N[C@@H](CC(N)=O)C(=O)N[C@@H](Cc1c[nH]c2ccccc12)C(=O)N[C@@H](CC(C)C)C(=O)N[C@H](C(=O)N[C@@H](CCC(N)=O)C(=O)N[C@H](C(=O)N[C@@H](CCCCN)C(=O)N[C@H](C(=O)N[C@H](C(=O)N[C@@H](CC(=O)O)C(=O)O)[C@@H](C)O)[C@@H](C)CC)[C@@H](C)O)[C@@H](C)CC` [teduglutide, [Gly2]hGLP-2] the “Wet Weight Absorption (% of intake), Patients With Beneficial Effect” value [1, 4] was 5, the “Wet Weight Absorption (g/day), Patients With Beneficial Effect” value [1, 4] was 5 and the “Wet Weight Fecal, Patients With Beneficial Effect” value [1, 4] was 5. For the same compound, the “decrease in fecal wet weight compared to baseline” value ([1]; Group 3 SBS ≥50% colon-in-continuity, 21-day treatment, stated as decrease) was 822 ± 341 g/day, the “Energy Absorption (% of intake), Effect of Treatment (Treatment minus Baseline) mean ± SD” value [1, 5] was 8±11 % of intake and the “Energy Absorption, Effect of Treatment (Treatment minus Baseline) mean ± SD” value [1, 5] was 963 ± 1290 kJ/day. The “Energy Fecal, Effect of Treatment (Treatment minus Baseline) mean ± SD” value [1, 5] was -1060 ± 1083 kJ/day, the “Urine Wet Weight, Effect of Treatment (Treatment minus Baseline) mean ± SD” value [1, 5] was 725 ± 394 g/day and the “Wet Weight Absorption (% of intake), Effect of Treatment (Treatment minus Baseline) mean ± SD” value [1, 5] was 23 ± 16 % of intake. For the same compound, the “Wet Weight Absorption, Effect of Treatment (Treatment minus Baseline) mean ± SD” value [1, 5] was 746 ± 436 g/day, the “Wet Weight Fecal, Effect of Treatment (Treatment minus Baseline) mean ± SD” value [1, 5] was -769 ± 447 g/day and the “Energy Absorption (% of intake), Effect at Follow up (Follow up minus Baseline) mean ± SD” value [1, 6] was 3 ± 16 % of intake. For the same compound, the “Energy Absorption, Effect at Follow up (Follow up minus Baseline) mean ± SD” value [1, 6] was 452 ± 1211 kJ/day, the “Energy Fecal, Effect at Follow up (Follow up minus Baseline) mean ± SD” value [1, 6] was -98 ± 1674 kJ/day and the “Urine Wet Weight, Effect at Follow up (Follow up minus Baseline) mean ± SD” value [1, 6] was 30 ± 285 g/day. For the same compound, the “Wet Weight Absorption (% of intake), Effect at Follow up (Follow up minus Baseline) mean ± SD” value [1, 6] was 0 ± 27 % of intake, the “Wet Weight Absorption, Effect at Follow up (Follow up minus Baseline) mean ± SD” value [1, 6] was 24 ± 576 g/day and the “Wet Weight Fecal, Effect at Follow up (Follow up minus Baseline) mean ± SD” value [1, 6] was 93 ± 500 g/day. For the same compound, the “Energy Absorption (% of intake), Patients With Beneficial Effect” value [1, 7] was 9, the “Energy Absorption (kJ/day), Patients With Beneficial Effect” value [1, 7] was 9 and the “Energy Fecal, Patients With Beneficial Effect” value [1, 7] was 8. The “Urine Wet Weight, Patients With Beneficial Effect” value [1, 7] was 10, the “Wet Weight Absorption (% of intake), Patients With Beneficial Effect” value [1, 7] was 9 and the “Wet Weight Absorption (g/day), Patients With Beneficial Effect” value [1, 7] was 9. The “Wet Weight Fecal, Patients With Beneficial Effect” value [1, 7] was 9, the “decrease in fecal energy excretion compared to baseline” value ([1]; Group 4 SBS high dietary compliance, stated as reduction) was 1060 ± 1083 kJ/day and the “improved wet weight absorption” value ([1]; SBS patient population) was 0.75 L. For the same compound, the “effect on absolute energy absorption relative to native GLP-2” value ([1]; at the given doses and treatment periods) was 1.5 to 4 fold, the “reversal of changes at follow-up” value ([1]; follow-up after cessation of dosing) was “Most changes in intestinal absorption and histology related to teduglutide treatment had reversed at follow-up” and the “effects on wet weight absorption relative to native GLP-2 pilot study” value ([1]; in vivo) was “almost two-fold”. The “number of SBS patients in whom absolute wet weight absorption increased as a percent of intake” value ([1]; of 15 SBS patients) was 13, the “number of SBS patients with decreases in energy excretion” value ([1]; of 15 SBS patients) was 12 and the “number of SBS patients with increased absolute wet weight absorption compared to baseline” value ([1]; of 15 SBS patients) was 15. For the same compound, the “number of SBS patients with increased urine weight” value ([1]; of 15 SBS patients) was 13, the antibodies to teduglutide ([2]; SBS patients, 21 days dosing) was “No antibodies to teduglutide were detected” and the “deaths and withdrawals due to adverse events” value ([2]; all patients) was “no deaths and no withdrawals due to adverse events”. The injection site reactions ([2]; in vivo) was “Three patients had minor injection site reactions”, the laboratory values ([2]; in vivo) was “No clinically significant abnormal laboratory values” and the “most common AEs” value ([2]; in vivo) was “edema of the lower limbs, and localized swelling of the jejunostomy nipple”. For the same compound, the “relation of serious AEs (catheter-related infection or complication, two patients) to drug” value ([2]; in vivo) was “None of these were judged to be related to teduglutide”, the “vital signs or ECGs” value ([2]; in vivo) was “No safety concerns were raised” and the “AUC during teduglutide treatment relative to AUC using native GLP-2” value ([3]; 'may well be', estimate) was roughly 200 times. The half-life ([3]; human, plasma, teduglutide, approximately) was 0.9 to 2.3 h.
